Test [1] has as its target T1, Beta-lactamase (Staphylococcus aureus, UniProt P00807). Nature of the test: Inhibitory activity against serine Beta-lactamase derived from Staphylococcus aureus.
In test [2] the target is T1, Beta-lactamase. Kind of test: Inhibitory activity against serine beta-lactamase, PC1 (class A) derived from Staphylococcus aureus.
For a further test, the target named is Beta-lactamase TEM (Escherichia coli, UniProt P62593). Kind of test: Inhibitory activity against serine Beta-lactamase TEM derived from […]. The test is classed as single protein.
Test [3] deals with Escherichia coli. Kind of test: In vitro synergistic activity against Escherichia coli C600N + (ampR ampC). The test is classed as functional.
Test [4] has as its system Escherichia coli. Nature of the test: In vitro synergistic activity against Escherichia coli GC 6266 clinical isolate. The test is classed as functional.
Test [5] concerns Klebsiella pneumoniae. Nature of the test: In vitro synergistic activity against Klebsiella pneumoniae GC 6269 clinical isolate. It is filed as functional.
The test system of test [6] is Escherichia coli. Nature of the test: In vitro synergistic activity against Escherichia coli C600N + (IRT-2). It is filed as functional.
Test [7] concerns Escherichia coli. Kind of test: In vitro synergistic activity against Escherichia coli ATCC 35218 (TEM-1). It is filed as functional.
In test [8] the test system is Escherichia coli. Kind of test: In vitro synergistic activity against Escherichia coli C600N + (TEM-1). The test is classed as functional.
For test [9], the system named is Escherichia coli. Nature of the test: In vitro synergistic activity against Escherichia coli C600N + (TEM-10). It is filed as functional.
The test system of test [10] is Escherichia coli. Nature of the test: In vitro synergistic activity against Escherichia coli C600N + (Sme-1). It is filed as functional.
Test [11] relates to Enterobacter cloacae. Nature of the test: In vitro synergistic activity against Enterobacter cloacae (Imi-1+AmpC). It is filed as functional.
The test system of test [12] is Escherichia coli. Nature of the test: In vitro synergistic activity against Escherichia coli GC6267 clinical isolate. The test is classed as functional.
Test [13] deals with Escherichia coli. Nature of the test: In vitro synergistic activity against Escherichia coli 4100 (no beta-lactamase). The test is classed as functional.
For test [14], the system named is Escherichia coli. Kind of test: In vitro synergistic activity against Escherichia coli ATCC 25922 (no beta-lactamase). It is filed as functional.
Test [15] concerns Escherichia coli. Kind of test: In vitro synergistic activity against Escherichia coli C600N + (SHV-1). It is filed as functional.
The subject of test [16] is Escherichia coli. Nature of the test: In vitro synergistic activity against Escherichia coli C600N + (OXA-10) {PSE-2}. It is filed as functional.
Test [17] has as its system Klebsiella pneumoniae. Kind of test: In vitro synergistic activity against Klebsiella pneumoniae (ACT-1 + 3 blas, IPM=S). It is filed as functional.
The subject of test [18] is Escherichia coli. Kind of test: In vitro synergistic activity against Escherichia coli 300 + (TEM-1). It is filed as functional.
The test system of test [19] is Escherichia coli. Kind of test: In vitro synergistic activity against Escherichia coli GC6265 (TEM-1). It is filed as functional.
The subject of test [20] is Enterobacter cloacae. Nature of the test: In vitro synergistic activity against Enterobacter cloacae SC12629 (AmpC inducible). The test is classed as functional.
For test [21], the system named is Escherichia coli. Nature of the test: In vitro synergistic activity against Escherichia coli 300 + (ampR ampC). It is filed as functional.
For test [22], the system named is Escherichia coli. Kind of test: In vitro synergistic activity against Escherichia coli C600N + (Imi-1). The test is classed as functional.
A further test relates to Serratia marcescens. Nature of the test: In vitro synergistic activity against Serratia marcescens GC 4132 (Amp C). The test is classed as functional.
Test [23] has as its system Escherichia coli. Nature of the test: In vitro synergistic activity against Escherichia coli C600N + (PSE-1). It is filed as functional.
Test [24] deals with Escherichia coli. Kind of test: In vitro synergistic activity against Escherichia coli C600N + (P99). The test is classed as functional.
Test [25] has as its system Escherichia coli. Nature of the test: In vitro synergistic activity against Escherichia coli C600N + (SHV-4). It is filed as functional.
The subject of test [26] is Escherichia coli. Kind of test: In vitro synergistic activity against Escherichia coli C600N + (L1). The test is classed as functional.
Test [27] deals with Escherichia coli. Nature of the test: In vitro synergistic activity against Escherichia coli 4100 + (CCRA). The test is classed as functional.
For test [28], the system named is Escherichia coli. Kind of test: In vitro synergistic activity against Escherichia coli C600N (no beta-lactamase). The test is classed as functional.
Test [29] deals with Escherichia coli. Kind of test: In vitro synergistic activity against Escherichia coli C600N + (MIR-1). It is filed as functional.
Another test relates to Pseudomonas aeruginosa. Nature of the test: In vitro synergistic activity against Pseudomonas aeruginosa Ps505A1 (AmpC derepressed). It is filed as functional.
Another test concerns Klebsiella aerogenes. Nature of the test: In vitro synergistic activity against Enterobacter aerogenes GC 6268 clinical isolate. It is filed as functional.
The subject of a further test is Staphylococcus aureus. Kind of test: In vitro synergistic activity against Staphylococcus aureus (PC1). The test is classed as functional.
Test [30] has as its system Klebsiella pneumoniae. Kind of test: In vitro synergistic activity against Klebsiella pneumoniae KC2 (TEM-10). The test is classed as functional.
Test [31] relates to Stenotrophomonas maltophilia. Nature of the test: In vitro synergistic activity against Stenotrophomonas maltophilia 1712(L1). It is filed as functional.
The test system of a further test is Aeromonas sobria. Kind of test: In vitro synergistic activity against Aeromonas sobria (Asb A, OXA-12, Asb M). It is filed as functional.

SMILES strings stand for the structures.

T1 sequence (P00807 whole entry): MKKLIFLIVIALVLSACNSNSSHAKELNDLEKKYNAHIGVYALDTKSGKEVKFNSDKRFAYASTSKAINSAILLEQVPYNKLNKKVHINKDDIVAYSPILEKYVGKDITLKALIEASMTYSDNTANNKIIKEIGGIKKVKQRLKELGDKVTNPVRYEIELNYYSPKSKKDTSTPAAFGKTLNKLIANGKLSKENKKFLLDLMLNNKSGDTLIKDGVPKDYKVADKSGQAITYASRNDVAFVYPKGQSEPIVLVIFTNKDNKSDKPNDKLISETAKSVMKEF
Sequence of Beta-lactamase TEM (P62593 whole entry): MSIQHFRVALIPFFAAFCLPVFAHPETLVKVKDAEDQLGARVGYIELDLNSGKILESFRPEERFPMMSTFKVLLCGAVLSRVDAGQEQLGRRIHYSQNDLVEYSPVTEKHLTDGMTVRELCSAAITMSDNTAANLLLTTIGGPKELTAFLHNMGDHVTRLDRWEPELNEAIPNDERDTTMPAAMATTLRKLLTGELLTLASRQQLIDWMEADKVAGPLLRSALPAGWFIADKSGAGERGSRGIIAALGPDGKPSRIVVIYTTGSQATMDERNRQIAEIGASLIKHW

For the compound `C[C@]1(COC(=O)Cc2ccccc2)[C@H](C(=O)O)N2C(=O)/C(=C/C(=O)O)C2S1(=O)=O` (stereo partly drawn), the half-inhibitory concentration (IC50) (as a rule, the concentration needed to halve the response being measured) against Beta-lactamase [1] is 540 nM; at Beta-lactamase [2], 579000 nM; against Beta-lactamase TEM, 15.4 nM.
Consider `COC(=O)/C=C1/C(=O)N2C1S(=O)(=O)[C@@](C)(CCl)[C@@H]2C(=O)O` (stereo partly drawn), for which the IC50 on Beta-lactamase [1] worked out at 13900 nM; at Beta-lactamase [2], 432000 nM.
With `Cn1nnnc1SCC(=O)OC[C@@]1(C)[C@H](C(=O)O)N2C(=O)/C(=C/C(=O)O)C2S1(=O)=O` (stereo partly drawn), the figures for the IC50 on Beta-lactamase [1] and on Beta-lactamase TEM were 640 nM and 233 nM, respectively.
In the case of `CC(=O)OC[C@@]1(C)[C@H](C(=O)O)N2C(=O)/C(=C/c3ccccn3)C2S1(=O)=O` (stereo partly drawn), the half-maximal inhibitory concentration (IC50) was 62 nM against Beta-lactamase [1], 660 nM against Beta-lactamase [2] and 4 nM at Beta-lactamase TEM.
For `C[C@]1(COC(=O)Cc2ccccc2)[C@H](C(=O)O)N2C(=O)/C(=C/c3ccccn3)C2S1(=O)=O` (stereo partly drawn) the same measures were 1 nM, 390 nM and 40 nM.
As for `CCN1CCN(C(=O)NC(C(=O)N[C@@H]2C(=O)N3[C@@H]2SC(C)(C)[C@@H]3C(=O)[O-])c2ccccc2)C(=O)C1=O.C[C@]1(Cn2ccnn2)C(C(=O)[O-])N2C(=O)C[C@H]2S1(=O)=O.[Na+].[Na+]` (stereo partly drawn), the MIC (commonly the lowest concentration that inhibits growth of the organism) in the test on Escherichia coli [3] was 8 µg/mL; with Escherichia coli [4], 16 µg/mL; with Klebsiella pneumoniae [5], 8 µg/mL; in the test on Escherichia coli [6] it was 8 µg/mL; with Escherichia coli [7] it was 1 µg/mL; in the test on Escherichia coli [8], 4 µg/mL. The MIC in the test with Escherichia coli [9] is 2 µg/mL; in the test with Escherichia coli [10], 8 µg/mL; with Enterobacter cloacae [11] it was 16 µg/mL; in the test with Escherichia coli [12], 16 µg/mL; with Escherichia coli [13], below 0.06 µg/mL; in the test on Escherichia coli [14], 2 µg/mL. Besides, the minimum inhibitory concentration (MIC) in the test with Escherichia coli [15] was 2 µg/mL; with Escherichia coli [16] it was 2 µg/mL; with Klebsiella pneumoniae [17], 32 µg/mL; with Escherichia coli [18], 4 µg/mL; in the test on Escherichia coli [19], 4 µg/mL; in the test with Enterobacter cloacae [20], above 64 µg/mL. In addition, the minimum inhibitory concentration (MIC) is 4 µg/mL in the test on Escherichia coli [21]; 16 µg/mL with Escherichia coli [22]; 32 µg/mL in the test with Serratia marcescens; 1 µg/mL with Escherichia coli [23]; 8 µg/mL in the test on Escherichia coli [24]; 2 µg/mL with Escherichia coli [25]. The MIC with Escherichia coli [26] is above 64 µg/mL; in the test with Escherichia coli [27], above 64 µg/mL; with Escherichia coli [28], 2 µg/mL; in the test on Escherichia coli [29], 8 µg/mL; in the test with Pseudomonas aeruginosa, 16 µg/mL; in the test with Klebsiella aerogenes, 32 µg/mL. Besides, the MIC with Staphylococcus aureus was 1 µg/mL; in the test with Klebsiella pneumoniae [30], 2 µg/mL; in test [31], above 64 µg/mL; in the test with Aeromonas sobria, 64 µg/mL.
As to `C[C@]1(COC(=O)Cc2ccc(O)c(O)c2)[C@H](C(=O)[O-])N2C(=O)/C(=C/c3ccccn3)C2S1(=O)=O.[Na+]` (stereo partly drawn), the MIC in the test with Escherichia coli [3], with Escherichia coli [4], with Klebsiella pneumoniae [5], in the test with Escherichia coli [6], in the test on Escherichia coli [7] and in the test with Escherichia coli [10] was above 64 µg/mL each time. Besides, the MIC with Enterobacter cloacae [11], in the test with Escherichia coli [12], in the test with Escherichia coli [13], with Escherichia coli [14], in the test on Klebsiella pneumoniae [17] and in the test with Escherichia coli [18] was above 64 µg/mL each time. Moreover, the MIC in the test on Escherichia coli [19], with Enterobacter cloacae [20], in the test on Escherichia coli [21], in the test on Escherichia coli [22], in the test with Serratia marcescens and in the test on Escherichia coli [23] was above 64 µg/mL throughout. Also, the MIC with Escherichia coli [24], in the test on Escherichia coli [26], in the test with Escherichia coli [27], with Escherichia coli [29], with Pseudomonas aeruginosa and in the test on Klebsiella aerogenes was above 64 µg/mL each time. The minimal inhibitory concentration (MIC) (in the test on Staphylococcus aureus; in the test with Klebsiella pneumoniae [30]; in test [31]; in the test on Aeromonas sobria) was above 64 µg/mL each time. Moreover, the results for the IC50 against Beta-lactamase [1], on Beta-lactamase [2] and against Beta-lactamase TEM were 26 nM, 700 nM and 60 nM, respectively.
Regarding `CC(=O)OC[C@@]1(C)[C@H](C(=O)O)N2C(=O)/C(=C/C(N)=O)C2S1(=O)=O` (stereo partly drawn), the IC50 on Beta-lactamase [1] came to 8480 nM; on Beta-lactamase [2] it was 2210 nM; at Beta-lactamase TEM it was 310 nM.
Take `C[C@]1(COC(=O)Cc2ccc(O)c(O)c2)[C@H](C(=O)O)N2C(=O)/C(=C/C(=O)O)C2S1(=O)=O` (stereo partly drawn): the IC50 came to 370 nM at Beta-lactamase [1] and 116000 nM against Beta-lactamase [2].

(Values after ChEMBL document CHEMBL1131794, “The synthesis and evaluation of 6-alkylidene-2'beta-substituted penam sulfones as beta-lactamase inhibitors” (Bioorg Med Chem Lett, 1999).)
